Measured values reported in patent publication US9410152B2, “Use of microrna molecules to influence skin pigmentation” (CHANEL PARFUMS BEAUTE, priority 2011, dated 2016).
Entries after “also recorded” stand apart in the source; their conditions may differ.

Assays:
Format in all cases: cell-based, human
[1] = system: TYR proteins; test: Western blot of TYR protein; details: MNT-1 cells, 50 nM mimetic, day 12
Procedure: (§1) 4×10^5 MNT-1 cells were seeded per well in a 6-well plate (#353046, Falcon) on day-1. On day 0, the cells were transfected with 50 nM of mimetic of the miRNAs (hsa-mir-137 # C-300604-07-005, hsa-mir-7 # C-300547-05-0005, hsa-mir-330-5p # C-301082-01-0005, negative control # NC-002000-01-05, Dharmacon), using 5 μL of Lipofectamine 2000 (#1668-019, Invitrogen). On day 1, the medium was changed. On day 3, the cells were trypsinized and seeded at 4×10^5 cells per well. On day 4, the cells were transfected again with 50 nM of mimetic of the miRNAs (see day 0). On day 5, the medium was changed. On day 7, the cells were trypsinized and seeded at 4×10^5 cells per well. On day 8, the cells were transfected with 50 nM of mimetic of the miRNAs (see day 0). On day 9, the medium was changed. On day 10, the cells were trypsinized and divided into two (from one by six wells to two by six wells). On day 12, one six-well plate was used for lysis of the RNA and the other for lysis of the proteins. As positive control of depigmentation, MNT-1 cells were incubated with 3.5 mM of kojic acid (Sigma K3125-5G) for 12 days. The cells were distributed as described and the kojic acid was renewed with the medium every 4 days. The percentage inhibition of the kojic acid is of the order of 10%. […] The concentration of proteins was determined with the BCA Protein Assay (ThermoFisher). […]

[2] = system: mRNA MITF-M; test: qRT-PCR mRNA expression of MITF-M; details: MNT-1 cells, 50 nM mimetic, day 12, relative to cel-miR-239b, ΔΔCt
Procedure: (§2) 4×10^5 MNT-1 cells were seeded per well in a 6-well plate (#353046, Falcon) on day-1. On day 0, the cells were transfected with 50 nM of mimetic of the miRNAs (hsa-mir-137 # C-300604-07-005, hsa-mir-7 # C-300547-05-0005, hsa-mir-330-5p # C-301082-01-0005, negative control # NC-002000-01-05, Dharmacon), using 5 μL of Lipofectamine 2000 (#1668-019, Invitrogen). On day 1, the medium was changed. On day 3, the cells were trypsinized and seeded at 4×10^5 cells per well. On day 4, the cells were transfected again with 50 nM of mimetic of the miRNAs (see day 0). On day 5, the medium was changed. On day 7, the cells were trypsinized and seeded at 4×10^5 cells per well. On day 8, the cells were transfected with 50 nM of mimetic of the miRNAs (see day 0). On day 9, the medium was changed. On day 10, the cells were trypsinized and divided into two (from one by six wells to two by six wells). On day 12, one six-well plate was used for lysis of the RNA and the other for lysis of the proteins. As positive control of depigmentation, MNT-1 cells were incubated with 3.5 mM of kojic acid (Sigma K3125-5G) for 12 days. The cells were distributed as described and the kojic acid was renewed with the medium every 4 days. The percentage inhibition of the kojic acid is of the order of 10%. 700 μL of Qiazol lysis buffer (Qiagen) was added per well of a six-well dish after washing the cells twice with PBS. The total RNA was isolated using the miRNeasy Mini kit (Qiagen) according to the manufacturer's protocol. The total RNA was eluted in 30 μl of water without RNAse. The concentration of RNA was measured using the NanoVue spectrophotometer (GE Healthcare). 1 μg of total RNA was reverse-transcribed using the MLV RT-Enzyme system (Invitrogen) in 60 μL of reaction to produce the corresponding cDNA. […] The concentrations of primers and the sequences are given in Table 5 below: The relative quantity was evaluated using the ΔΔCt comparative method. Briefly, this method compares the quantity of expression of the target gene relative to an endogenous control TBP, within a sample for normalizing the expression. […]

[3] = system: protein TYRP1; test: Western blot of TYRP1 protein; details: MNT-1 cells, 50 nM mimetic, day 12
Procedure: as §1

[4] = system: MITF; test: Western blot of MITF protein; details: MNT-1 cells, 50 nM mimetic, day 12
Procedure: as §1

[5] = system: MLANA; test: Western blot of MLANA protein; details: MNT-1 cells, 50 nM mimetic, day 12
Procedure: as §1

[6] = system: mRNA TYRP1; test: qRT-PCR mRNA expression of TYRP1; details: MNT-1 cells, 50 nM mimetic, day 12, relative to cel-miR-239b, ΔΔCt
Procedure: as §2

[7] = system: mRNA MLANA; test: qRT-PCR mRNA expression of MLANA; details: MNT-1 cells, 50 nM mimetic, day 12, relative to cel-miR-239b, ΔΔCt
Procedure: as §2

Substance | content of TYR proteins (Western blot) [1] | levels of mRNA MITF-M [2] | levels of mRNA MITF-M ([2]; listed as miR-137) | level of protein TYRP1 (Western blot) [3] | level of protein MITF (Western blot) [4] | level of protein MLANA (Western blot) [5] | levels of mRNA TYRP1 [6] | levels of mRNA TYRP1 ([6]; listed as miR-137) | levels of mRNA MLANA [7] | levels of mRNA MLANA ([7]; listed as miR-137) | levels of mRNA MITF-M ([2]; listed as miR-7) | levels of mRNA TYRP1 ([6]; listed as miR-7) | levels of mRNA MLANA ([7]; listed as miR-7)
hsa-miR-330-5p: mimetic of miRNA hsa-mir-330-5p (Dharmacon C-301082-01-0005); mature sequence 5'-UCUCUGGGCCUGUGUCUUAGGC-3' (SEQ ID NO: 1) (UCUCUGGGCCUGUGUCUUAGGC; mimic duplex, passenger strand not given here; listed as Homo sapiens) | decreased | – | – | – | – | – | – | – | – | – | – | – | –
hsa-miR-137: mimetic of miRNA hsa-mir-137 (Dharmacon C-300604-07-005); mature sequence SEQ ID NO: 3 (UUAUUGCUUAAGAAUACGCGUAG; commercial mimic, chemistry not given here; listed as Homo sapiens) | – | significantly reduced | considerably reduced | reduces the level of protein TYRP1 slightly | eliminates | eliminates | significantly reduced | considerably reduced | significantly reduced | considerably reduced | – | – | –
hsa-miR-7: mimetic of miRNA hsa-mir-7 (Dharmacon C-300547-05-0005); mature hsa-miR-7-5p sequence SEQ ID NO: 2 (UGGAAGACUAGUGAUUUUGUUGU; commercial mimic, chemistry not given here; listed as Homo sapiens) | decreases | – | – | – | decreases | – | – | – | – | – | appears to reduce; also recorded: slightly reduced | appears to reduce; also recorded: slightly reduced | appears to reduce; also recorded: slightly reduced
